From ChEMBL document CHEMBL5584307, “Discovery of a Potent and Orally Bioavailable Xanthine Oxidase/Urate Transporter 1 Dual Inhibitor as a Potential Treatment for Hyperuricemia and Gout” (J Med Chem, 2024)

Tests used:
[1] = Half life in Beagle dog at 5 mg/kg, po measured upto 24 hrs by LC-MS/MS analysis; format: ADME, organism-based, Canis lupus familiaris; details: in vivo
[2] = Toxicity in cynomolgous monkey assessed as flatus in intestines at 200 mg/kg/day for 28 days consecutively; format: organism-based, Macaca fascicularis; details: cynomolgus monkey, in vivo, 672 h, time 28 day
[3] = target: T1, Cytochrome P450 1A2 (Homo sapiens, UniProt P05177); assay: Induction of CYP1A2 in human hepatocytes at 50 uM incubated for 48 hrs with media containing compound renewal every 24 hrs followed by substrate addition measured after 30 mins by LC-MS/MS analysis; format: ADME, cell-based, Hepatocyte; details: 48.5 h
T1 sequence (P05177 whole entry): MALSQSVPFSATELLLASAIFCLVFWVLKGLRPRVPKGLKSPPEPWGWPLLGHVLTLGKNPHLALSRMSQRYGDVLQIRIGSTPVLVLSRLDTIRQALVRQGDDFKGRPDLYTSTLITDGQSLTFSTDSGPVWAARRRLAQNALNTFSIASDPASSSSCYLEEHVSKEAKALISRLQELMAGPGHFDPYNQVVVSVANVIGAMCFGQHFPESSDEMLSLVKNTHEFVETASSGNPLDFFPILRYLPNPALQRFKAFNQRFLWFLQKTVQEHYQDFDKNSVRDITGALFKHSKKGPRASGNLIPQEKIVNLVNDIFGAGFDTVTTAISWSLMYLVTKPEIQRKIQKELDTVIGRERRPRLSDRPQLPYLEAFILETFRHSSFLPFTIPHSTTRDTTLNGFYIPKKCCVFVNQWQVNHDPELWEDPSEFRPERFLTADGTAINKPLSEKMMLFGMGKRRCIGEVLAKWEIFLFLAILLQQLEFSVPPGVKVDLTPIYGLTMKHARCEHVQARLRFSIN

[4] = Ratio of drug concentration in Sprague-Dawley rat liver to plasma at 3 mg/kg, po measured for 24 hrs by LC-MS/MS analysis; format: ADME, organism-based; details: liver and plasma
[5] = AUC (last) in Beagle dog at 1 mg/kg, iv measured upto 24 hrs by LC-MS/MS analysis; format: ADME, organism-based, Canis lupus familiaris; details: in vivo
[6] = target: Cytochrome P450 2C9 (Homo sapiens, UniProt P11712); assay: Inhibition of CYP2C9 in human liver microsomes in presence of NADPH by LC-MS/MS analysis; format: ADME, Microsome
Chain of Cytochrome P450 2C9 (P11712 whole entry): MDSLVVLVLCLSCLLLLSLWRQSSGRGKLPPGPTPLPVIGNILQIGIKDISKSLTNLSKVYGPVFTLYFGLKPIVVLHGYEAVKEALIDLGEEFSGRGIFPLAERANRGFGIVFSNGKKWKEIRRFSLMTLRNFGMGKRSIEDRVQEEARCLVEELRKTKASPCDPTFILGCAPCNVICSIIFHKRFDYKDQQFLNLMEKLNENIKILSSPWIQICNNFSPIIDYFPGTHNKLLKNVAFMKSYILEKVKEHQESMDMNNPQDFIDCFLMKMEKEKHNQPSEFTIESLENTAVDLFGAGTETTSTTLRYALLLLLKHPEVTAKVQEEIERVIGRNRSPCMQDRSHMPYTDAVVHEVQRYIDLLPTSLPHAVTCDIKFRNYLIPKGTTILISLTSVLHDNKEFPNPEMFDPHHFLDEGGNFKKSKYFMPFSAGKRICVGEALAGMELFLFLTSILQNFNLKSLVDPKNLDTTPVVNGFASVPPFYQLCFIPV

[7] = AUC (last) in Tufted capuchin monkey at 10 mg/kg, po measured for 24 hrs by LC-MS/MS analysis; format: ADME, organism-based; details: sapajus apella, in vivo
[8] = Half life in Cynomolgous monkey at 5 mg/kg, po measured upto 24 hrs by LC-MS/MS analysis; format: ADME, organism-based, Macaca fascicularis; details: cynomolgus monkey, in vivo
[9] = target: T2, Solute carrier family 22 member 12 (Homo sapiens, UniProt Q96S37); assay: Inhibition of URAT1 (unknown origin) by absorbance based assay
T2 sequence (Q96S37 whole entry): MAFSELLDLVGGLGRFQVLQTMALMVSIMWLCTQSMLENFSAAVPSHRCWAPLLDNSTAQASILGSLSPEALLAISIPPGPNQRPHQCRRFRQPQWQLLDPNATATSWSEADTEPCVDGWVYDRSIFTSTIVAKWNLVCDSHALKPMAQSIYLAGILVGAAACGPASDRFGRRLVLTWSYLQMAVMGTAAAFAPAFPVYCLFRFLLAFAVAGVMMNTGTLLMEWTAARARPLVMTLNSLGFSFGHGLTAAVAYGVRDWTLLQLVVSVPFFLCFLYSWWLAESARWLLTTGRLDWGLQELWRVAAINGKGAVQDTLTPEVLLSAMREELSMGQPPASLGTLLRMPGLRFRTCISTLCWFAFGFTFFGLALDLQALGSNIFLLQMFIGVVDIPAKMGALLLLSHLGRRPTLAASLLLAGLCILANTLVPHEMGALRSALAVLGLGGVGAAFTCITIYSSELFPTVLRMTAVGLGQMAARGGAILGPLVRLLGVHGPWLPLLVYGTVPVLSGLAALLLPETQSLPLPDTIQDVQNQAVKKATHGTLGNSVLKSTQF

[10] = Clearance in Cynomolgous monkey at 1 mg/kg, iv measured upto 24 hrs by LC-MS/MS analysis; format: ADME, organism-based, Macaca fascicularis; details: cynomolgus monkey, in vivo
[11] = Cmax in Tufted capuchin monkey at 100 mg/kg, po measured for 24 hrs by LC-MS/MS analysis; format: ADME, organism-based; details: sapajus apella, in vivo
[12] = Cmax in Tufted capuchin monkey at 30 mg/kg, po measured for 24 hrs by LC-MS/MS analysis; format: ADME, organism-based; details: sapajus apella, in vivo
[13] = AUC (0 to t) in male cynomolgous monkey at 30 mg/kg/day for 28 days; format: ADME, organism-based, Macaca fascicularis; details: cynomolgus monkey, in vivo, time 28 day
[14] = target: Voltage-gated inwardly rectifying potassium channel KCNH2 (Homo sapiens, UniProt Q12809); assay: Inhibition of hERG by electrophysiology; format: toxicity
Chain of Voltage-gated inwardly rectifying potassium channel KCNH2 (Q12809 whole entry): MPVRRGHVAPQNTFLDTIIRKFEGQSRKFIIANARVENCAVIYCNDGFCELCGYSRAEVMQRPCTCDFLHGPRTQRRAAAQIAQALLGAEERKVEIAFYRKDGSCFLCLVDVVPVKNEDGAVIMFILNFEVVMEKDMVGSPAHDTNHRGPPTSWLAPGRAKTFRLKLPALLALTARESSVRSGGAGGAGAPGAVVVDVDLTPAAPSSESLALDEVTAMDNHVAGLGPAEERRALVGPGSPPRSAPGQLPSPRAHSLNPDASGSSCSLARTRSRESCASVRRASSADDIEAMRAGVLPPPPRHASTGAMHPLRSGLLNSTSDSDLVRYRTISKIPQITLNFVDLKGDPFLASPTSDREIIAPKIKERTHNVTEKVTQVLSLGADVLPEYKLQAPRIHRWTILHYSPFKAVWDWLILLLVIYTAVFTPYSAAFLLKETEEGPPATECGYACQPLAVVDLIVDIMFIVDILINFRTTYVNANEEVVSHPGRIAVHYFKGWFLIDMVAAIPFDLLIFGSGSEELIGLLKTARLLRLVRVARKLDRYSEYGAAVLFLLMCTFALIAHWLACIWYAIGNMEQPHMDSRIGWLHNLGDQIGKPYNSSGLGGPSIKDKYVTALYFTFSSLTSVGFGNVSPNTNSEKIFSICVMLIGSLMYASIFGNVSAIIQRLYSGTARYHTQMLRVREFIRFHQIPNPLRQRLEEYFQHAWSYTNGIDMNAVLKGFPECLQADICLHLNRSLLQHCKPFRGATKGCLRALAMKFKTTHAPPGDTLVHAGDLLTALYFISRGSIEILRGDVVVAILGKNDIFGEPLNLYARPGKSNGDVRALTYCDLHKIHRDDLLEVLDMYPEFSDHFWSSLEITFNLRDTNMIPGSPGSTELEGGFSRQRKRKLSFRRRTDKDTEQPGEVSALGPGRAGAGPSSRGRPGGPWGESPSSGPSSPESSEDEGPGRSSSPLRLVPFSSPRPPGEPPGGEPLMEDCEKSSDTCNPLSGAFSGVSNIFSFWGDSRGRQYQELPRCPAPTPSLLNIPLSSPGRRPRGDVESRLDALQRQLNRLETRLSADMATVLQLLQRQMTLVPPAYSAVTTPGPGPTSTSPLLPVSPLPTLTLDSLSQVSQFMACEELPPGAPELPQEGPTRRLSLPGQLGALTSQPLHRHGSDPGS

[15] = Toxicity in cynomolgous monkey assessed as distended abdomen at 200 mg/kg/day for 28 days consecutively; format: organism-based, Macaca fascicularis; details: cynomolgus monkey, in vivo, 672 h, time 28 day
[16] = Half life in overnight-fasted Sprague-Dawley rat at 5 mg/kg, po measured upto 24 hrs by LC-MS/MS analysis; format: ADME, organism-based; details: in vivo
[17] = Cmax in Beagle dog at 5 mg/kg, po measured upto 24 hrs by LC-MS/MS analysis; format: ADME, organism-based, Canis lupus familiaris; details: in vivo
[18] = Toxicity in rat assessed as mucosal necrosis in pylorus at 120 mg/kg/day for 28 days by H and E staining based analysis; format: organism-based; details: in vivo, 672 h, time 28 day
[19] = Toxicity in cynomolgous monkey assessed as decrease in food consumption at 90 to 200 mg/kg/day for 28 days consecutively; format: organism-based, Macaca fascicularis; details: cynomolgus monkey, in vivo, 672 h; dose 90-200 mg/kg/day, time 28 day
[20] = Clearance in overnight-fasted Sprague-Dawley rat at 1 mg/kg, iv measured upto 24 hrs by LC-MS/MS analysis; format: ADME, organism-based; details: in vivo
[21] = Toxicity in rat assessed as decrease in body weight at 120 mg/kg/day for 28 days; format: organism-based; details: in vivo, 672 h, time 28 day
[22] = target: Cytochrome P450 3A4 (Homo sapiens, UniProt P08684); assay: Induction of CYP3A4 in human hepatocytes at 50 uM incubated for 48 hrs with media containing compound renewal every 24 hrs followed by substrate addition measured after 30 mins by LC-MS/MS analysis; format: ADME, cell-based, Hepatocyte; details: 48.5 h
Chain of Cytochrome P450 3A4 (P08684 whole entry): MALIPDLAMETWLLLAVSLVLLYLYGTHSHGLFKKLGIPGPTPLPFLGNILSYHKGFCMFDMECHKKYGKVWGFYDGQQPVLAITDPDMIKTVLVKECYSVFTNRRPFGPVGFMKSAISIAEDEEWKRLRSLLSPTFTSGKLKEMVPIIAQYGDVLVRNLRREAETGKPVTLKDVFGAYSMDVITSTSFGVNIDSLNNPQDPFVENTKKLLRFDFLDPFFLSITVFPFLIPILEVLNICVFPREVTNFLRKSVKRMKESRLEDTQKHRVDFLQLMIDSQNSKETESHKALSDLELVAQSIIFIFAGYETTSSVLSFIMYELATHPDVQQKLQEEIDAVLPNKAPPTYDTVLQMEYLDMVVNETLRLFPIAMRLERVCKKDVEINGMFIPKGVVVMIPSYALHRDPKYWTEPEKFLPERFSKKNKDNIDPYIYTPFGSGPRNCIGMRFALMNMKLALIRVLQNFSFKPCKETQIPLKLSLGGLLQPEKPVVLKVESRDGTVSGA

With `N#Cc1cc(-c2ccc(C(=O)O)c(O)c2)c2oc(F)cc2c1` the half-life [1] was 2.82 h, the Activity [2] was “Toxic” and the Activity [3] was under 20%. The Kp at 24 h [4] was 1.17, the AUC(0-t) at 24 h [5] was 3130 ng·h/mL and the IC50 [6] was 2.78 µM. For the same compound, the AUC(0-t) at 24 h [7] was 4340 ng·h/mL, the half-life [8] was 7.9 h and the IC50 [9] was 0.031 µM. For the same compound, the clearance [10] was 0.993 mL/min/kg, the Cmax [11] was 145000 ng/mL and the Cmax [12] was 16700 ng/mL. For the same compound, the AUC(0-t) at 672 h [13] was 339000 ng·h/mL, the IC50 [14] was over 52 µM and the Activity [15] was “Toxic”. The half-life [16] was 2.84 h, the Cmax [17] was 2530 ng/mL and the Activity [18] was “Toxic”. For the same compound, the Activity [19] was “Toxic”, the clearance [20] was 1.51 mL/min/kg and the Activity [21] was “Toxic”. For the same compound, the Activity [22] was under 20%.
